Experimental findings from patent publication US12507703B2, “Methods, devices and compositions for preserving human milk” (The Trustees of Princeton University, priority 2023, dated 2025) are described below.

Where “and” joins values, the source holds several entries; their conditions need not be identical. Equal values may be shown once. Where a SMILES comes first, the peptide text is derived from it.

In the experiment the test system is lipase. The experiment is described as follows: Lipase/lipolysis assay (EnzChek Lipase Substrate, quenched BODIPY-fatty acid conjugate) on stored human milk. Note: test concentration or dose not given here.
With `COc1cc2c(=O)c(-c3ccc(O)cc3)coc2cc1O[C@@H]1O[C@H](CO)[C@@H](O)[C@H](O)[C@H]1O` [Glycitin], the “Lipase (RFU)” value is 799.4163 RFU.

In the case of `c1ccc2c(c1)[nH]c1cnccc12` [Norharmane], the “Lipase (RFU)” value is reported as 960.1337 RFU.

Take `C=C1CC[C@H]2O[C@]2(C)CC[C@@H]2[C@@H]1CC2(C)C` [Caryophyllene oxide]: the “Lipase (RFU)” value is 891.7497 RFU and 923.1149 RFU.

On to `O=P(O)(O)O[C@H]1O[C@H](CO)[C@@H](O)[C@H](O)[C@H]1O` [D-Glucose-1-Phosphate], for which the “Lipase (RFU)” value is 853.7765 RFU and 929.0604 RFU.

With `C[C@]12CC[C@@H](O)C[C@H]1CC[C@@H]1[C@@H]2CC[C@]2(C)C(=O)CC[C@@H]12` [Etiocholanolone], the “Lipase (RFU)” value is given as 868.806 RFU.

Consider `CC1(C)CCCC2(C)OC(=O)C=C12` (single isomer, unassigned; (+)) [(+)-Dihydroactinidiolide], for which the “Lipase (RFU)” value amounted to 951.3124 RFU.

For the compound `C=C(C)[C@H]1Cc2c(ccc3c2O[C@@H]2COc4cc(OC)c(OC)cc4[C@@H]2C3=O)O1` [Rotenone], the “Lipase (RFU)” value is reported as 542.204 RFU.

Take `CCCCC[C@H](O)/C=C/[C@H]1[C@H](O)CC(=O)[C@@H]1C/C=C\CCCC(=O)O` [Prostaglandin E2]: the “Lipase (RFU)” value was determined as 1264.564 RFU.

On to `CSCC[C@H](NC=O)C(=O)O` [For-Met-OH], for which the “Lipase (RFU)” value is recorded as 819.8295 RFU.

With `Nc1ncnc(N[C@@H]2O[C@H](CO)[C@@H](O)[C@H]2O)c1[N+](=O)[O-]` [Clitocine], the “Lipase (RFU)” value is listed as 1144.133 RFU.

For the compound `C[C@]12CCC(=O)C=C1CC[C@@H]1[C@@H]2[C@@H](O)C[C@]2(C)C(=O)CC[C@@H]12` [11-Beta-hydroxyandrostenedione], the “Lipase (RFU)” value is on record as 1190.299 RFU.

With `O=c1c(O)c(-c2ccc(O)c(O)c2)oc2cc(O)c(O)c(O)c12` [Quercetagetin], the “Lipase (RFU)” value was determined as 891.7095 RFU.

On to `C=CCc1cc(OC)c2c(c1)OCO2` [Myristicin], for which the “Lipase (RFU)” value turned out to be 960.4671 RFU.

As to `C[C@@H]1O[C@@H](O[C@H]2[C@H](O[C@H]3CC[C@]4(C)[C@H]5CC=C6[C@@H]7CC(C)(C)CC[C@]7(C(=O)O[C@@H]7O[C@H](CO[C@@H]8O[C@H](CO)[C@@H](O[C@@H]9O[C@@H](C)[C@H](O)[C@@H](O)[C@H]9O)[C@H](O)[C@H]8O)[C@@H](O)[C@H](O)[C@H]7O)CC[C@@]6(C)[C@]5(C)CC[C@H]4C3(C)C)OC[C@H](O)[C@@H]2O)[C@H](O)[C@H](O)[C@H]1O` [Hederasaponin B], the “Lipase (RFU)” value is on record as 619.4985 RFU.

Turning to `CCCCCCCCC[C@H](O)CC(=O)CCc1ccc(O)c(OC)c1` [Compound 10-Gingerol], the “Lipase (RFU)” value stood at 817.7781 RFU.

Take `C=C(C)[C@@H]1CCC2=CCC[C@@H](C)[C@]2(C)C1` [Valencene]: the “Lipase (RFU)” value worked out at 980.1668 RFU.

In the case of `Oc1cc(O)c2cc(O)c(-c3cc(O)c(O)c(O)c3)[o+]c2c1.[Cl-]` [Delphinidin (chloride)], the “Lipase (RFU)” value is on record as 816.1782 RFU.

`C[Se]C[C@H](N)C(=O)O` [Se-Methylselenocysteine]: the “Lipase (RFU)” value worked out at 889.6084 RFU.

On to `COc1cc(C(=O)O)cc(OC)c1OC` [3,4,5-Trimethoxybenzoic acid], for which the “Lipase (RFU)” value is listed as 1121.402 RFU.

In the case of `NCC(=O)N[C@@H](CCC(=O)O)C(=O)O` [Glycyl-L-Glutamic Acid] (H-Gly-Glu-OH), the “Lipase (RFU)” value was determined as 846.2286 RFU.

For `CC1=C(C)C(=O)O[C@@H]([C@](C)(O)[C@H]2CC[C@H]3[C@@H]4[C@@H]5O[C@@H]5[C@@]5(O)CC=CC(=O)[C@]5(C)[C@H]4CC[C@]23C)C1` [Withanolide A], the “Lipase (RFU)” value was found to be 840.7696 RFU.

In the case of `COc1cc2oc3cc(O)c(OC)c(CC=C(C)C)c3c(=O)c2c(O)c1CC=C(C)C` [beta-Mangostin], the “Lipase (RFU)” value was 828.6091 RFU.

For `O=c1cc(-c2ccccc2)oc2cc(O)cc(O[C@@H]3O[C@H](CO)[C@@H](O)[C@H](O)[C@H]3O)c12` [Toringin], the “Lipase (RFU)” value worked out at 1102.623 RFU.

`O=C1C[C@@H](c2ccc(O)c(O)c2)Oc2cc(O[C@@H]3O[C@H](CO)[C@@H](O)[C@H](O)[C@H]3O)cc(O)c21` [Eriodictyol-7-O-glucoside]: the “Lipase (RFU)” value is 982.3042 RFU.

Turning to `CC(=O)NCCCCNCCCN.Cl.Cl` [N8-Acetylspermidine dihydrochloride], the “Lipase (RFU)” value is reported as 781.9265 RFU.

Take `CC(C)CCC[C@@H](C)[C@H]1CC[C@H]2C3=C(CC[C@]12C)[C@@]1(C)CC[C@H](O)CC1=CC3` [8-Dehydrocholesterol]: the “Lipase (RFU)” value is reported as 707.3733 RFU.

With `CC(C)=CCc1c2ccoc2c(O)c2oc(=O)ccc12` [Alloimperatorin], the “Lipase (RFU)” value is recorded as 601.2746 RFU.

Regarding `O=c1ccc2cc(O)c(O[C@@H]3O[C@H](CO)[C@@H](O)[C@H](O)[C@H]3O)cc2o1` [Cichoriin], the “Lipase (RFU)” value amounted to 714.076 RFU.

Consider `CC1(C)[C@@H](O)CC[C@]2(C)[C@H]3C(=O)C=C4[C@H]5C[C@@](C)(C(=O)O)CC[C@]5(C)CC[C@@]4(C)[C@]3(C)CC[C@@H]12` [18α-Glycyrrhetinic acid], for which the “Lipase (RFU)” value stood at 794.4219 RFU.

Consider `CC1=CC(=O)CC(C)(C)[C@@]1(O)/C=C/C(C)=C\C(=O)O` [Abscisic acid], for which the “Lipase (RFU)” value stood at 1087.943 RFU.

For the compound `C=C1C(=O)O[C@@H]2C[C@@]3(C)CCC[C@H](C)C3=C[C@H]12` [Alantolactone], the “Lipase (RFU)” value came to 900.1725 RFU.

Consider `CC(C)=CCC[C@](C)(O[C@@H]1O[C@H](CO[C@@H]2O[C@H](CO)[C@@H](O)[C@H](O)[C@H]2O)[C@@H](O)[C@H](O)[C@H]1O)[C@H]1CC[C@]2(C)[C@@H]1[C@H](O)C[C@@H]1[C@@]3(C)CC[C@H](O[C@@H]4O[C@H](CO)[C@@H](O)[C@H](O)[C@H]4O[C@@H]4O[C@H](CO)[C@@H](O)[C@H](O)[C@H]4O[C@@H]4OC[C@@H](O)[C@H](O)[C@H]4O)C(C)(C)[C@@H]3CC[C@]12C` [Notoginsenoside Fa], for which the “Lipase (RFU)” value was 1075.493 RFU.

Take `COc1cc(O)c2c(=O)cc(-c3ccc(O)c(O)c3)oc2c1` [Hydroxygenkwanin]: the “Lipase (RFU)” value is 874.9866 RFU.

Consider `C1CNCCN1.O=C(O)CC(O)(CC(=O)O)C(=O)O` [Piperazine (citrate)], for which the “Lipase (RFU)” value is recorded as 986.285 RFU.

For `CCCCCCCCCCCCCC(=O)OC[C@@H](O)COP(=O)([O-])OCC[N+](C)(C)C` [LysoPC(14:0/0:0)], the “Lipase (RFU)” value is on record as 1043.126 RFU.

Turning to `COc1cc2c(cc1O)CC[C@@H]1[C@@H]2CC[C@]2(C)[C@@H](O)CC[C@@H]12` [Compound 2-Methoxyestradiol], the “Lipase (RFU)” value worked out at 884.0231 RFU.

`C=C[C@]1(C)CC[C@@H](C(=C)C)C[C@H]1C(=C)C` [β-Elemene]: the “Lipase (RFU)” value amounted to 1099.979 RFU.

For the compound `C[N+](C)(C)CCO.O=C([O-])C(O)C(O)C(=O)O` (centres unmarked) [Choline (bitartrate)], the “Lipase (RFU)” value was 1263.191 RFU and 1046.984 RFU.

Turning to `C[C@H](CCC(=O)NCCS(=O)(=O)[O-])[C@H]1CC[C@H]2[C@@H]3[C@H](O)C[C@@H]4C[C@H](O)CC[C@]4(C)[C@H]3CC[C@]12C.[Na+]` [Taurochenodeoxycholic acid (sodium)], the “Lipase (RFU)” value is recorded as 1047.423 RFU.

Take `C[C@H](CCC(=O)O)[C@H]1CC[C@H]2[C@@H]3CC[C@H]4C[C@@H](O)CC[C@]4(C)[C@H]3CC[C@]12C` [Isoallolithocholic acid]: the “Lipase (RFU)” value was 881.405 RFU.

With `O=c1c(O[C@@H]2O[C@H](CO[C@@H]3O[C@H](CO)[C@@H](O)[C@H](O)[C@H]3O)[C@@H](O)[C@H](O)[C@H]2O)c(-c2ccc(O)c(O)c2)oc2cc(O)cc(O)c12` [Quercetin 3-gentiobioside], the “Lipase (RFU)” value was 676.8795 RFU.

Consider `C[C@H](CC(=O)C[C@@H](C)[C@H]1C[C@H](O)[C@@]2(C)C3=C(C(=O)C[C@]12C)[C@@]1(C)CCC(=O)C(C)(C)[C@@H]1C[C@@H]3O)C(=O)O` [Ganoderic acid A], for which the “Lipase (RFU)” value turned out to be 685.8921 RFU.

As for Liquiritin apioside, the “Lipase (RFU)” value was 875.5815 RFU.

On to `COc1c(CC=C(C)C)c(O)cc2oc(=O)c3c4ccc(O)cc4oc3c12` [Neoglycyrol], for which the “Lipase (RFU)” value stood at 923.0229 RFU.

Triolein: the “Lipase (RFU)” value is reported as 728.6705 RFU.

Regarding `C[S+]([O-])CCCC/C(=N\OS(=O)(=O)O)S[C@@H]1O[C@H](CO)[C@@H](O)[C@H](O)[C@H]1O` (some centres unmarked) [Glucoraphanin], the “Lipase (RFU)” value is given as 983.9092 RFU.

Take `CCCCCCCCCCC[C@@H](C[C@@H]1OC(=O)[C@H]1CCCCCC)OC(=O)[C@H](CC(C)C)NC=O` [Orlistat, reference compound]: the “Lipase (RFU)” value is reported as 234.506 RFU.

With `NCCOP(=O)(O)O` [O-Phosphoryl-Ethanolamine], the “Lipase (RFU)” value is on record as 1247.866 RFU.

As for `CC1(C)S[C@@H]2[C@H](NC(=O)[C@H](N)c3ccc(O)cc3)C(=O)N2[C@H]1C(=O)[O-].[Na+]` [Amoxicillin (sodium)], the “Lipase (RFU)” value amounted to 1082.26 RFU.

Consider `C=CC/C(=N/OS(=O)(=O)[O-])S[C@@H]1OC(CO)[C@@H](O)C(O)C1O.[K+]` (some centres unmarked) [Sinigrin], for which the “Lipase (RFU)” value came out at 1002.884 RFU.

For `COc1cc([C@H]2c3cc(O)c(OC)cc3C[C@@H](C)[C@@H]2C)ccc1O` [Guaiacin], the “Lipase (RFU)” value is reported as 808.3575 RFU.

In the case of `C=C(CCC=C(C)C)[C@H]1CC[C@]2(C)[C@@H]1[C@H](O)C[C@@H]1[C@@]3(C)CC[C@H](O)C(C)(C)[C@@H]3[C@@H](O[C@@H]3O[C@H](CO)[C@@H](O)[C@H](O)[C@H]3O[C@@H]3O[C@@H](C)[C@H](O)[C@@H](O)[C@H]3O)C[C@]12C` [Ginsenoside Rg6], the “Lipase (RFU)” value was 737.5989 RFU.

Regarding `CC[C@H](N)C(=O)O` [H-Abu-OH], the “Lipase (RFU)” value was 993.6587 RFU.

As for `COC(=O)[C@H](Cc1ccccc1)NC(=O)[C@H](CC(=O)O)NCCC(C)(C)C` [Neotame], the “Lipase (RFU)” value is given as 994.7737 RFU.

With `COc1ccc2c(c1)OC(O)C(=O)N2O` (centres unmarked) [DIMBOA], the “Lipase (RFU)” value amounted to 910.6705 RFU.

In the case of `CC(C)(O)[C@H]1Cc2cc3ccc(=O)oc3cc2O1` [Nodakenetin], the “Lipase (RFU)” value amounted to 882.2828 RFU.
